Laboratory results taken from ChEMBL document CHEMBL4699472, “Novel potent and selective pyrazolylpyrimidine-based SYK inhibitors” (Bioorg Med Chem Lett, 2020).

How the values were obtained:
[1] = molecular target: Voltage-gated inwardly rectifying potassium channel KCNH2 (Homo sapiens, UniProt Q12809); assay: Inhibition of human ERG assessed as tail current by plate-based planar patch clamp assay
[2] = Lipophilicity, logD of compound in buffer:octanol (100:1) at pH 7.4 by shake flask method; format: physicochemical
SUD4 = assay: Growth inhibition of human SU-DHL-4 cells after 72 hrs; format: functional
[3] = Intrinsic clearance in human liver microsomes; format: ADME, Microsome; conditions: read-out: CLH
[4] = Intrinsic clearance in rat hepatocytes measured per million cells; format: ADME, cell-based, Hepatocyte; conditions: read-out: CLH
[5] = molecular target: Tyrosine-protein kinase SYK (Homo sapiens, UniProt P43405); assay: Inhibition of SYK (unknown origin)
[6] = Protein binding in Han Wistar rat plasma assessed as unbound fraction; format: ADME, cell-free
[7] = Volume of distribution at steady state in Han Wistar rat at 2 umol/kg, po and 1 umol/kg, iv; format: ADME, organism-based; conditions: in vivo, dose 1 µmol/kg, read-out: Vdss
[8] = Oral bioavailability in Han Wistar rat at 2 umol/kg; format: ADME, organism-based; conditions: in vivo, at 2 µmol/kg
[9] = Clearance in Han Wistar rat at 2 umol/kg, po and 1 umol/kg, iv; format: ADME, organism-based; conditions: in vivo, dose 1 µmol/kg
[10] = Dissociation constant, pKa of the compound; format: physicochemical
[11] = Clearance in Beagle dog at 2 umol/kg, po and 1 umol/kg, iv relative to hepatic blood flow; format: ADME, organism-based, Canis lupus familiaris; conditions: in vivo, at 2 µmol/kg
[12] = Intrinsic clearance in dog hepatocytes measured per million cells; format: ADME, cell-based, Canis lupus familiaris, Hepatocyte; conditions: read-out: CLH
[13] = Clearance in Beagle dog at 2 umol/kg, po and 1 umol/kg, iv; format: ADME, organism-based, Canis lupus familiaris; conditions: in vivo, dose 2 µmol/kg
[14] = Volume of distribution at steady state in Beagle dog at 2 umol/kg, po and 1 umol/kg, iv; format: ADME, organism-based, Canis lupus familiaris; conditions: in vivo, dose 2 µmol/kg, read-out: Vdss
[15] = Oral bioavailability in Beagle dog at 2 umol/kg; format: ADME, organism-based, Canis lupus familiaris; conditions: in vivo, at 2 µmol/kg
[16] = Protein binding in Beagle dog plasma assessed as unbound fraction; format: ADME, cell-free, Canis lupus familiaris

Chain of Voltage-gated inwardly rectifying potassium channel KCNH2 (Q12809 whole entry): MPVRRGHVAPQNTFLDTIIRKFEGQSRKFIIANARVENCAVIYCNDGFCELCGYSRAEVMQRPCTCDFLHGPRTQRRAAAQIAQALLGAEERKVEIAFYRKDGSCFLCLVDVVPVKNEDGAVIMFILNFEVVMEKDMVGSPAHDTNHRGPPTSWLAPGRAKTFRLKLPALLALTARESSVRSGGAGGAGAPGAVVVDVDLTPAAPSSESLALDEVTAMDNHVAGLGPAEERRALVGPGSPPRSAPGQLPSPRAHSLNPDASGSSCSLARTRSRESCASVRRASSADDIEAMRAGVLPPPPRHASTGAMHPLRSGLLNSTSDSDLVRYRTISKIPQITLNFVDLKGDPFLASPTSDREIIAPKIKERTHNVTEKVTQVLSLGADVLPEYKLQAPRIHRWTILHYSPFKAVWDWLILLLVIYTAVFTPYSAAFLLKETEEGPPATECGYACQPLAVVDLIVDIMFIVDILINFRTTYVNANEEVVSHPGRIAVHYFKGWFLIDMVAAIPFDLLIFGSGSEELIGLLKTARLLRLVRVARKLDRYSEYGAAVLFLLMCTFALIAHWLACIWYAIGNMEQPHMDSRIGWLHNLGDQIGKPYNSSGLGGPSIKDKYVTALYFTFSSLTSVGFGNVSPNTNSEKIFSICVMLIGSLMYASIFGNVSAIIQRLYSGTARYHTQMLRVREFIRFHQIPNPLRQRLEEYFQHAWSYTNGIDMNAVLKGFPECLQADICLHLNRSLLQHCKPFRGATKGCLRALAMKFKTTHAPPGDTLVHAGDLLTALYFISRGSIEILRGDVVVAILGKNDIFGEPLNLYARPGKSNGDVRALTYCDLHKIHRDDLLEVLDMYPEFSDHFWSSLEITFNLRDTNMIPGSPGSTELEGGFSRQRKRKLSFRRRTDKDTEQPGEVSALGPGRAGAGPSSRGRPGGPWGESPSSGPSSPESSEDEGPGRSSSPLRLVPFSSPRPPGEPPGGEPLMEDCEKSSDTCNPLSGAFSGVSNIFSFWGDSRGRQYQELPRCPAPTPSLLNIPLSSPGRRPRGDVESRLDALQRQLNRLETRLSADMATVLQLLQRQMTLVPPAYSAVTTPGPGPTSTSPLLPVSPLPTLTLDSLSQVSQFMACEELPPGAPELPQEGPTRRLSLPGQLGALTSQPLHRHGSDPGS

Row | SMILES | IC50 [1] [nM] | logD [2] | GI50 (SUD4) [nM] | microsomal CLint [3] [µL/min/mg] | hepatocyte CLint [4] [µL/min/1e6 cells] | IC50 [5] [nM] | also measured
1 | Cc1nnc(-c2nn(C)c3ccc(Nc4nccc(-n5cc(N[C@@H]6CCOC[C@@H]6N)c(C)n5)n4)cc23)o1 | 11000 | 3.1 | 1300 | 129 | 17 | 0.2 | –
2 | CNC(=O)c1nc(C)n2ccc(Nc3nccc(-n4cc(OCCN)cn4)n3)cc12 | > 39000 | 0.6 | – | 7 | 14 | 0.88 | –
3 | CNC(=O)c1nc(C)n2ccc(Nc3nccc(-n4cc(N[C@@H]5CCOC[C@@H]5N)c(C)n4)n3)cc12 | > 39000 | 1.6 | 810 | 32 | 6 | 3.2 | –
4 | CNC(=O)c1nn(C)c2ccc(Nc3nccc(-n4cc(N[C@@H]5CCOC[C@@H]5N)c(C)n4)n3)cc12 | – | 1.6 | 560 | 32 | 8 | 0.34 | fraction unbound [6]: 0.25; Vd [7]: 5.4 L/kg; bioavailability [8]: 3.8%; clearance [9]: 76 mL/min/kg
5 | CNC(=O)c1nn(C)c2ccc(Nc3nccc(-n4cc(NC5CNC5)c(C)n4)n3)cc12 | – | 0.7 | – | 8 | < 1 | 1.5 | –
6 | CNC(=O)c1nn(C)c2ccc(Nc3nccc(-n4cc(NCC5(N)CC5)c(C)n4)n3)cc12 | – | 2.3 | 2800 | 28 | 8 | 0.34 | fraction unbound [6]: 0.056; Vd [7]: 1.3 L/kg; bioavailability [8]: 29%; clearance [9]: 13 mL/min/kg
7 | CNC(=O)c1nn(C)c2ccc(Nc3nccc(-n4cc(CN(C)C)c(C)n4)n3)cc12 | – | – | 240 | – | – | – | –
8 | CNC(=O)c1nn(C)c2ccc(Nc3nccc(-n4cc(N[C@@H]5CCNC5)c(C)n4)n3)cc12 | > 39000 | 0.3 | 170 | < 10 | 3 | 0.6 | fraction unbound [6]: 0.24; Vd [7]: 13 L/kg; pKa [10]: 9.5; bioavailability [8]: 0%; clearance [9]: 60 mL/min/kg
9 | CNC(=O)c1nn(C)c2ccc(Nc3nccc(-n4cc(O[C@@H]5CCCNC5)c(C)n4)n3)cc12 | 2500 | 1.7 | 350 | 8 | 9 | 0.19 | –
10 | CNC(=O)c1nn(C)c2ccc(Nc3nccc(-n4cc(OC5CNC5)c(C)n4)n3)cc12 | – | 1.9 | – | < 3 | 13 | 1.3 | –
11 | CNC(=O)c1nn(C)c2ccc(Nc3nccc(-n4cc(N[C@@H]5CCCNC5)c(C)n4)n3)cc12 | > 39000 | 0.6 | 300 | < 5 | 3 | 0.73 | fraction unbound [6]: 0.33; Vd [7]: 19 L/kg; bioavailability [8]: 0%; clearance [9]: 78 mL/min/kg
12 | CNC(=O)c1nn(C)c2ccc(Nc3nccc(-n4cc(O[C@H]5CCNC5)c(C)n4)n3)cc12 | – | – | – | – | – | 2.9 | –
13 | CNC(=O)c1nc(C)n2ccc(Nc3nccc(-n4cc(N[C@@H]5CCOC[C@@H]5N)cn4)n3)cc12 | > 39000 | 1.7 | 260 | 20 | 14 | – | –
14 | CNC(=O)c1nn(C)c2ccc(Nc3nccc(-n4cc(N[C@H]5CNC[C@@H]5F)c(C)n4)n3)cc12 | 19000 | 1.7 | 970 | 28 | 8 | 0.3 | pKa [10]: 7.8
15 | CNC(=O)c1nn(C)c2ccc(Nc3nccc(-n4cc(N[C@H]5CCNC5)c(C)n4)n3)cc12 | – | – | – | – | – | 11 | –
16 | CNC(=O)c1nn(C)c2ccc(Nc3nccc(-n4cc(O[C@@H]5CCNC5)c(C)n4)n3)cc12 | 5200 | 1.4 | 510 | < 5 | 13 | 0.51 | –
17 | CNC(=O)c1nc(C)n2ccc(Nc3nccc(-n4cc(NCCN)cn4)n3)cc12 | > 39000 | – | – | < 3 | 2 | 0.23 | –
18 | CNC(=O)c1nn(C)c2ccc(Nc3nccc(-n4cc(N[C@@H]5CCOC[C@@H]5N)cn4)n3)cc12 | 15000 | 2.2 | 220 | 17 | 4 | 0.33 | fraction unbound [6]: 0.28; Vd [7]: 9.8 L/kg; CL [11]: 40%; hepatocyte CLint [12]: < 1 µL/min/1e6 cells; clearance [13]: 16 mL/min/kg; Vd [14]: 5.7 L/kg; bioavailability [15]: 2%; bioavailability [8]: 1.8%; clearance [9]: 82 mL/min/kg; fraction unbound [16]: 0.27
19 | Cc1nn(-c2ccnc(Nc3ccc4c(c3)c(Cl)nn4C)n2)cc1N[C@@H]1CCOC[C@@H]1N | – | – | – | – | – | 62 | –
20 | CNC(=O)c1nn(C)c2ccc(Nc3nccc(-n4cc(N[C@@H]5CCN(C)C5)c(C)n4)n3)cc12 | – | 2 | – | – | – | 7.9 | –
21 | CNC(=O)c1nn(C)c2ccc(Nc3nccc(-n4cc(O[C@H]5CNC[C@H]5F)c(C)n4)n3)cc12 | – | 2.9 | 1400 | 44 | 25 | 0.4 | –
22 | Cc1nn(-c2ccnc3[nH]c(-c4cccc5c4ccn5C)nc23)cc1CN(C)C | – | – | – | 37 | – | – | –
23 | Cc1nn(-c2ccnc(Nc3ccc4c(c3)c(C(=O)C(F)(F)F)cn4C)n2)cc1N[C@@H]1CCOC[C@@H]1N | 4700 | 2.4 | – | 71 | 8 | 0.22 | –
24 | CNC(=O)c1nc(C)n2ccc(Nc3nccc(-n4cc(CN(C)C)cn4)n3)cc12 | 7100 | 1.3 | 230 | 20 | 13 | 0.24 | –
